In US4026888A, “Certain derivatives of particular 3-thiolated cephalosporins” (priority 1976, dated 1977):
Converted amounts (≈) assume the structure as drawn. Read-outs that look alike come from different tables or passages of the source.

Legend:
Sal. enteritidis A9531 = test: Antibiotic activity in nutrient broth (MIC); assay type: cell-based; conditions: inoculum 10^-4, derivatives adjusted for BL-S640 content
Excerpt: (§1) Antibiotic Activity In Nutrient Broth
(§2) ** Dilution of overnight broth culture.
(§3) Antibiotic Spectrum Nutrient Broth
(§4) Antibiotic Spectrum in Nutrient Broth

K. pneumoniae A15130 = test: Antibiotic activity in nutrient broth (MIC); assay type: cell-based; conditions: derivatives adjusted for BL-S640 content
Excerpt: as §1, §2, §3, §4

Ent. cloacae A9656 = test: Antibiotic activity in nutrient broth (MIC); assay type: cell-based; conditions: Enterobacter cloacae, derivatives adjusted for BL-S640 content
Excerpt: as §1, §2, §3, §4

Ent. cloacae A9657 = test: Antibiotic activity in nutrient broth (MIC); assay type: cell-based; conditions: derivatives adjusted for BL-S640 content
Excerpt: as §1, §2, §3, §4

E. coli A9675 = test: Antibiotic activity in nutrient broth (MIC); assay type: cell-based; conditions: derivatives adjusted for BL-S640 content
Excerpt: as §1, §2, §3, §4

K. pneumoniae A9977 = test: Antibiotic activity in nutrient broth (MIC); assay type: cell-based; conditions: Klebsiella pneumoniae, inoculum 10^-4, derivatives adjusted for BL-S640 content, read-out: MIC
Excerpt: as §1, §2, §3, §4

Water solubility = assay type: physicochemical; conditions: for solubility: read-out: Solubility in water
[1] = Detection in urine (with mouse blood levels); assay type: in vivo; conditions: no evidence of the derivative
[2] = Stability of aqueous solutions; assay type: physicochemical
Rat blood levels = assay type: in vivo; conditions: in words
bacterial spectrum = test: Antibacterial activity / MIC bacterial spectrum compared with parent; assay type: cell-based; conditions: in words
Excerpt: |Antibiotic Activity In Nutrient Broth

[3] = IR-NMR: cyclic / non cyclic derivative in solution; assay type: physicochemical; conditions: 70 mg/ml
Pr. morganii A15153 = test: Antibiotic activity in nutrient broth (MIC); assay type: cell-based; conditions: Morganella morganii, A15153, inoculum 10^-4; derivatives adjusted for BL-S640 content; read-out: MIC
Excerpt: as §1, §2, §3, §4

Stability of solids = assay type: physicochemical; conditions: solid; 1 month at 56° C.; read-out: Stability of Solids (loss)
[4] = Salmonella enterica, ENTERITIDIS, read-out: MIC
[5] = Klebsiella pneumoniae, A15130, inoculum 10^-4, read-out: MIC
[6] = Enterobacter cloacae, A9657, inoculum 10^-4, read-out: MIC
[7] = Escherichia coli, A9675, inoculum 10^-4, read-out: MIC

Experimental for physchem: Paper strip bioautographs were run in the following manner. Samples were dissolved at a concentration of 500 γ/ml. in 0.1M pH 7 phosphate buffer and pH 7 pooled human serum at 500 γ/ml. A 10 μl sample of BL-S640 and the above product were spotted on a 1/2 inch strip of What. No. 1 paper and developed at 27° for 16 hours in a butyl acetate 80, n-butanol 15, acetic acid 40, and water 24 system. The strips were air-dried, and placed on an agar plate seeded with B. subtilis A.T.C.C.
Samples were chromatographed on a μ Bondapak C18 (Waters Associates) column using a 0.01M sodium acetate pH 4/-methanol 8/2 mobile phase at a flow rate of 0.52 ml./min. Detection was by UV at 354 μm. Samples were dissolved at a concentration of 1 mg./ml. in the mobile phase, 2 μ were injected and BL-S640 was eluted at 18 min. and the aldehyde at 6 min. The quantitation of BL-S640 and 5-formylfuransulfonic acid were made using p-toluene-sulfonic acid as an internal standard.

SMILES	MIC (Sal. enteritidis A9531; [4]) [mg/L]	MIC (K. pneumoniae A15130; [5]) [mg/L]	MIC (Ent. cloacae A9656; A9656, inoculum 10^-4) [mg/L]	MIC (Ent. cloacae A9657; [6]) [mg/L]	MIC (E. coli A9675; [7]) [mg/L]	MIC (K. pneumoniae A9977) [mg/L]	solubility (Water solubility) [mg/mL]	MIC (Pr. morganii A15153) [mg/L]	further results
N[C@@H](C(=O)N[C@@H]1C(=O)N2C(C(=O)O)=C(CSc3cnn[nH]3)CS[C@H]12)c1ccc(O)cc1 [BL-S640, 7-[D-α-amino-α-(p-hydroxyphenyl)acetamido]-3-(1,2,3-triazol-5-ylthiomethyl)-3-cephem-4-carboxylic acid, reference compound]	0.25 (≈ 0.541 µM)	2 (≈ 4.32 µM)	> 125	1 (≈ 2.16 µM)	4 (≈ 8.65 µM)	0.5 (≈ 1.08 µM)	–	–	MIC (Sal. enteritidis A9531): 0.13 mg/L (≈ 0.281 µM); MIC (K. pneumoniae A15130; inoculum 10^-4): 1 mg/L (≈ 2.16 µM); MIC (Ent. cloacae A9656; A9656, inoculum 10^-4, read-out: MIC): 63 mg/L (≈ 136 µM); MIC (Ent. cloacae A9657; inoculum 10^-4): 0.5 mg/L (≈ 1.08 µM); MIC (E. coli A9675; inoculum 10^-4): 2 mg/L (≈ 4.32 µM)
O=C(O)C1=C(CSc2cnn[nH]2)CS[C@@H]2[C@H](N3C(=O)[C@@H](c4ccc(O)cc4)NC3c3ccc(S(=O)(=O)O)o3)C(=O)N12 (some centres unmarked) [BL-S1027]	0.25 (≈ 0.403 µM)	1 (≈ 1.61 µM)	> 125	1 (≈ 1.61 µM)	4 (≈ 6.44 µM)	0.5 (≈ 0.806 µM)	> 500	32 (≈ 51.6 µM)	Solubility in water (Water solubility): > 400 mg/mL; Form appearing in urine [1]: BL-S640 appeared in urine with no evidence; Storage of aqueous solutions, loss in activity ([2]; 250, 25 and 10 mg. BL-S640 activity/ml., 4° C. or room temperature, at least 24 hours): no significant loss in activity; Stability of solution in water: stable (retained full bioactivity) ([2]; 25,000 mcg./ml., 6° C. (refrigerator)): 14 days; Stability of solution in water ([2]; 25,000 mcg./ml., room temperature, for at least three days): stable (retained full bioactivity) for at least three days; degraded at 24 h ([2]; water, 250, 25 and 10 mg./ml. of BL-S640 activity, at least 24 hours at room temperature, read-out: Stability of solutions (loss)): < 10%; Intramuscular rat blood levels compared with BL-S640 (Rat blood levels; intramuscular): equal to that of BL-S640; Oral rat blood levels compared with BL-S640 (Rat blood levels; oral): equal to that of BL-S640; MIC bacterial spectrum / activity compared with parent (bacterial spectrum): equal to that of BL-S640; non cyclic derivative in solution [3]: 20%; degraded (Stability of solids): < 10%
O=C(O)COc1ccccc1C1N[C@H](c2ccc(O)cc2)C(=O)N1[C@@H]1C(=O)N2C(C(=O)O)=C(CSc3cnn[nH]3)CS[C@H]12 (some centres unmarked) [BL-S1048]	0.13 (≈ 0.208 µM)	1 (≈ 1.6 µM)	> 125	0.5 (≈ 0.8 µM)	2 (≈ 3.2 µM)	0.5 (≈ 0.8 µM)	–	32 (≈ 51.2 µM)	–
O=C(O)C1=C(CSc2cnn[nH]2)CS[C@@H]2[C@H](N3C(=O)[C@@H](c4ccc(O)cc4)NC3c3ccccc3S(=O)(=O)O)C(=O)N12 (some centres unmarked) [BL-S1055]	0.35 (≈ 0.555 µM)	1 (≈ 1.59 µM)	125 (≈ 198 µM)	0.5 (≈ 0.793 µM)	4 (≈ 6.34 µM)	0.5 (≈ 0.793 µM)	> 400	32 (≈ 50.7 µM)	degraded at 1 h (physchem): 70.5%; degraded at 2 h (physchem): 88%
